In patent US8986667B2, “Cosmetic composition with skin tightening effect” (LVMH Recherche, priority 2001, dated 2015):

Tested on: human skin
Assay: Kinetics of penetration of caffeine through thawed human skin mounted on Franz cells
Assay type: in vitro ADME
Settings: receptor liquid
Excerpt: This study is made, in vitro, on human skin, which is kept beforehand by freezing, with the aim of evaluating the influence of the mixture according to the invention on the penetration and the distribution of caffeine within the skin beds. The occlusive properties of a gel according to the invention lead the research of an eventual patch effect. This study is made in comparison with a Carbopol gel.
The principle of the study is based on the evaluation of the diffusion of an active principle through the thawed human skin which is mounted on Franz cells.
These cells are constituted of two glass elements which delimit an upper partition and a lower partition, and they have an exposed surface area of […]. The skin is placed between these two elements, stratum corneum to the top. The active principle deposited on the skin crosses it and is collected in the lower partition, dissolved in a solution which is known as the receptor solution and which is constituted of a phosphate buffer+Na nitride (0.1%) mixture. […]
The kinetics of penetration, in μg/cm^2 per unit time, is expressed as a function of the interval of confidence, the IC95%, wherein the residual standard deviation is calculated by the ANOVA method over the whole of the tests. […]

Cn1c(=O)c2c(ncn2C)n(C)c1=O [caffeine]
maximum concentration of caffeine collected during the study: less than 23 μg/mL
